What was measured:
[1] = molecular target: T1, Serine/threonine-protein kinase DCLK1 (Homo sapiens, UniProt O15075)
T1 sequence (O15075 whole entry): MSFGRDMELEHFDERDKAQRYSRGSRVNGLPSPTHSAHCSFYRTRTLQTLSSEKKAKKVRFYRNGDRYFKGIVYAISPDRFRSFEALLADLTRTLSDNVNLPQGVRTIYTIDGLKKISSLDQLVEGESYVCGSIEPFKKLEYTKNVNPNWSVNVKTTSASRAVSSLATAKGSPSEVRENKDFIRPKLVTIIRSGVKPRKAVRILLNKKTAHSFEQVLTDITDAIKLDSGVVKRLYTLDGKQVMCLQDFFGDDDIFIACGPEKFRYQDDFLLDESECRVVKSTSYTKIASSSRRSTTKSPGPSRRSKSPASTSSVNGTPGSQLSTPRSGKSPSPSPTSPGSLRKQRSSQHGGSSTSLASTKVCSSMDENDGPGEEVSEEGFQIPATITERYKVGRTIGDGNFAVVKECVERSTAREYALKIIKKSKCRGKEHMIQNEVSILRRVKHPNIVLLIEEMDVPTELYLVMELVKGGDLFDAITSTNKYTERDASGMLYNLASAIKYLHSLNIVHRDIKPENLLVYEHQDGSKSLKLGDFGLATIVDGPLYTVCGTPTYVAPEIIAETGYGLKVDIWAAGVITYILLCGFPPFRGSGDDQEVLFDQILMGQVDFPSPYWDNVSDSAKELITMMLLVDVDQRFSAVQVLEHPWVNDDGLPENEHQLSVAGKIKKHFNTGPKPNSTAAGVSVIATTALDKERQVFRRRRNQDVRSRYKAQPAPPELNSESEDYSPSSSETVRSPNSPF

[2] = molecular target: Atypical kinase COQ8A, mitochondrial (Homo sapiens, UniProt Q8NI60)
Atypical kinase COQ8A, mitochondrial, sequence (Q8NI60 whole entry): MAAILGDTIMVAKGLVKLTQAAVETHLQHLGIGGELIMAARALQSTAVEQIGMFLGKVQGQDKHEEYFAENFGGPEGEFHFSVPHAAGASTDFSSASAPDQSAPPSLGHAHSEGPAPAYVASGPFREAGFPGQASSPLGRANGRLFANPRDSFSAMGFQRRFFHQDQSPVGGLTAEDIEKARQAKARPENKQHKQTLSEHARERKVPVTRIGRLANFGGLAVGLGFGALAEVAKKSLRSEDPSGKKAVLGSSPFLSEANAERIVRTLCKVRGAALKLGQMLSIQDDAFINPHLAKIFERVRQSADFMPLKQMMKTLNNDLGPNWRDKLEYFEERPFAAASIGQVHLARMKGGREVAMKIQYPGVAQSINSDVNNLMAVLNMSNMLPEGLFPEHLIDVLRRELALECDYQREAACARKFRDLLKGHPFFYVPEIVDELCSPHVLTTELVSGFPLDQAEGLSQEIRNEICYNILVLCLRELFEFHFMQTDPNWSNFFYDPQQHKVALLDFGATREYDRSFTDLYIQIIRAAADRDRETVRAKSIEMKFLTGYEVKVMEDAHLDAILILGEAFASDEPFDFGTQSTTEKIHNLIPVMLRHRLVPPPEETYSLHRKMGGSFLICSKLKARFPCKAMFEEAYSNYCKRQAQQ

[3] = molecular target: T2, Inhibitor of nuclear factor kappa-B kinase subunit epsilon (Homo sapiens, UniProt Q14164)
T2 sequence (Q14164 whole entry): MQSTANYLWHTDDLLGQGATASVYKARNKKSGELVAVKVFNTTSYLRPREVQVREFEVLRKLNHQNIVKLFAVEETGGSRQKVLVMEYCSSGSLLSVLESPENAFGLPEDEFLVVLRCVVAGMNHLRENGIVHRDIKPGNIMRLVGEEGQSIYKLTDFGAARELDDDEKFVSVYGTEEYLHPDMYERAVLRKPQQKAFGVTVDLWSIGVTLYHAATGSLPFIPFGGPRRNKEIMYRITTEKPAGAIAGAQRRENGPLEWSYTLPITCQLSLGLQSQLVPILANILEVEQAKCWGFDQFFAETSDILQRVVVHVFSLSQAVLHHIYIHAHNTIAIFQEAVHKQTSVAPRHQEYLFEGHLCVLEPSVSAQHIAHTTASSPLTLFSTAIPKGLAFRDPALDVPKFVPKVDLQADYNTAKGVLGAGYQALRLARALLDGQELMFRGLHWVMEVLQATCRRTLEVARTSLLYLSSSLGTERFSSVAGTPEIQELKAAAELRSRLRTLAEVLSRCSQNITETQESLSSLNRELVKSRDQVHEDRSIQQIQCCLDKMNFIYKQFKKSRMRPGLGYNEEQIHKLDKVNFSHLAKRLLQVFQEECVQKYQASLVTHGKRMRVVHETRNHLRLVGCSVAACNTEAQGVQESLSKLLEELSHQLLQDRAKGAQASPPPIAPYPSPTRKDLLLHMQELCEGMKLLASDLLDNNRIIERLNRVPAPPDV

[4] = molecular target: T3, Tyrosine-protein kinase receptor TYRO3 (Homo sapiens, UniProt Q06418)
T3 sequence (Q06418 whole entry): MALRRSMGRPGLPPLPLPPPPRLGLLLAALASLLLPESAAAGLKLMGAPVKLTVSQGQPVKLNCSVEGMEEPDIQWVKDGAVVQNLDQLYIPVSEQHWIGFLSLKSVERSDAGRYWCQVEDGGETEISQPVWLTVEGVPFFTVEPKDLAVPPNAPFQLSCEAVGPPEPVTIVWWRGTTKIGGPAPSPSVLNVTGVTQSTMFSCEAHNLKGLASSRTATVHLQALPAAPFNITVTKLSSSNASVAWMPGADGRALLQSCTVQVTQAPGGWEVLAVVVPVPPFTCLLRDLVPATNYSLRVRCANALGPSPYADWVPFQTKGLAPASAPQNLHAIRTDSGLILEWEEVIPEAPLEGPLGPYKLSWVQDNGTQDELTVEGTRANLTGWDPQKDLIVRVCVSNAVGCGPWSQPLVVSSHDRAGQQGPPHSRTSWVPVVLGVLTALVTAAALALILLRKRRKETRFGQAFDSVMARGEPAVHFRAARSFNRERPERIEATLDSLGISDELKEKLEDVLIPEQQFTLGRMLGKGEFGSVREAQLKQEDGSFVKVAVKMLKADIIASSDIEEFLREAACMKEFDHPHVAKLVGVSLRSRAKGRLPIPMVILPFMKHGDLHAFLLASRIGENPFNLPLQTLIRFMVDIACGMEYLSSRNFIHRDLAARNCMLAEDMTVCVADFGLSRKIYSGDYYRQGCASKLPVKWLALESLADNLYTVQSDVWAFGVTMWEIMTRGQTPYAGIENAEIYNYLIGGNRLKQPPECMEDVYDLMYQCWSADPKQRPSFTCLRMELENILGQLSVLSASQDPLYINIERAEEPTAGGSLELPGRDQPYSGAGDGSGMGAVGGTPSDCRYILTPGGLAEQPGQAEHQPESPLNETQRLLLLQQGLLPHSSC

[5] = molecular target: Calcium/calmodulin-dependent protein kinase type II subunit beta (Homo sapiens, UniProt Q13554)
Calcium/calmodulin-dependent protein kinase type II subunit beta, sequence (Q13554 whole entry): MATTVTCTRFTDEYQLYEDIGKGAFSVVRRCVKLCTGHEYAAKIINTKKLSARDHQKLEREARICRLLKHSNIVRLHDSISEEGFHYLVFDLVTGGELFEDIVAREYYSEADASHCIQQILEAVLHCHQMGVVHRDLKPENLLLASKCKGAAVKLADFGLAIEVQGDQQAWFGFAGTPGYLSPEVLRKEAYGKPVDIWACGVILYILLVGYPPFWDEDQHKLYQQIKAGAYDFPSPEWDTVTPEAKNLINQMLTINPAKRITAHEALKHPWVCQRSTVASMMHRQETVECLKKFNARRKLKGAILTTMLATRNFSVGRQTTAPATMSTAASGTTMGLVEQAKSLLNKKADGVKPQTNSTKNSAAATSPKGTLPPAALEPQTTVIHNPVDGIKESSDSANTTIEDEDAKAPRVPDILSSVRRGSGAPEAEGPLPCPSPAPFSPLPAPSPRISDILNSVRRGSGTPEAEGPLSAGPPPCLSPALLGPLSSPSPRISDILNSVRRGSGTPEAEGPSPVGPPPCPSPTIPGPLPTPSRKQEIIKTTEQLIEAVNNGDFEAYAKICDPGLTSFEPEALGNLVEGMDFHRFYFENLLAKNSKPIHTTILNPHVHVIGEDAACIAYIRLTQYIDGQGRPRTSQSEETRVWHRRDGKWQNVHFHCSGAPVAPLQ

[6] = molecular target: T4, Serine/threonine-protein kinase STK11 (Homo sapiens, UniProt Q15831)
T4 sequence (Q15831 whole entry): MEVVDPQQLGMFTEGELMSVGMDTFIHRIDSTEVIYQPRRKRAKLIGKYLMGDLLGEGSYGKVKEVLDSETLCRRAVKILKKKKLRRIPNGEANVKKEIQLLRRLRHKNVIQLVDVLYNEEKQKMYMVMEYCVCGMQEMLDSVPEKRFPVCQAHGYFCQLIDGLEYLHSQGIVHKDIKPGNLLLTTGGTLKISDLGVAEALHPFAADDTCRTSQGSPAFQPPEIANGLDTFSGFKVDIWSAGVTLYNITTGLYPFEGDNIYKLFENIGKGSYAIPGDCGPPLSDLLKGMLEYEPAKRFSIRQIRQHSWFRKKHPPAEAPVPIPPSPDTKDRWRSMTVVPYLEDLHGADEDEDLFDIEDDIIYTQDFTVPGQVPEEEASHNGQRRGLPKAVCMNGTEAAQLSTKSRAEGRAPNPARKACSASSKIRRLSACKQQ

Measured: Kd

Oc1ccc(-c2nc(-c3ccncc3)c(-c3ccc(F)cc3)[nH]2)cc1 [SB-202190]
> 10 µM: [1] | [2] | [3] | [4] | [5] | [6]

COCC(=O)NC/C=C/c1ccc2ncnc(Nc3ccc(Oc4ccc(C)nc4)c(C)c3)c2c1 [CP-724714]
> 10 µM: [1] | [2] | [3] | [4] | [5] | [6]

Nc1nc(Nc2ccc(S(N)(=O)=O)cc2)nn1C(=O)c1c(F)cccc1F [JNJ-7706621]
> 10 µM: [4] | [5] | [6]

NC(=O)c1ccc(-c2nc(-c3ccc4c(c3)OCO4)c(-c3ccccn3)[nH]2)cc1 [SB-431542]
> 10 µM: [1] | [2] | [3] | [4] | [5] | [6]

CCOc1cc2ncc(C#N)c(Nc3ccc(F)c(Cl)c3)c2cc1NC(=O)/C=C/CN(C)C [PELITINIB]
> 10 µM: [1] | [2] | [3] | [5] | [6]

From ChEMBL document CHEMBL1150977, “A quantitative analysis of kinase inhibitor selectivity” (Nat Biotechnol, 2008)
